One data set relates to Slc:ICR mice. Put plainly: Acute toxicity test, single intravenous administration, mice. Type of data set: in vivo, Mouse. The settings on record: for Acute toxicity (LD₅₀): Mouse, Intravenous Injection, single administration. Here is the method: (§1) A single administration toxicity test was carried out by effecting intravenous injections (medium: physiological saline) to a group consisting of five male and five female 7 to 8-weeks-old Slc:SD rats and a group consisting of five male and five female 7 to 8-weeks-old Slc:ICR mice.

A further data set relates to Slc:SD rats. Put plainly: Acute toxicity test, single intravenous administration, rats. Type of data set: in vivo, Rat. The settings on record: for Acute toxicity (LD₅₀): Rat, Intravenous Injection, single administration. Here is the method:
as §1

Data set [1] has as its system porcine liver transplantation model. Put plainly: Porcine liver transplantation model (8 hr cold preservation, sympatric transplantation). Format: in vivo, swine. Here is the method:
A model was employed in which swine each weighing 30 to 40 kg were used, the livers were extirpated therefrom and preserved at low temperature for 8 hr, and sympatric liver transplantation was carried out. More specifically, the swine were starved for 24 hr, and randomly divided into two groups. Group 1 consisted of 9 donors and 9 recipients, which were treated with the above compound of the present invention. In the surgical operation of the donors, the compound (I) was added to the perfusate and the preservation fluid (1 mg/ℓ). Further, the compound (I) was continuously intravenously administered to the recipients (0.3 mg/kg) and added, in the surgical operation thereof, to the washing fluid for washing away the preservation fluid from the interior of each of the transplant livers (1 mg/ℓ).
Group 2 as a control group not treated with the compound of the present invention consisted of 9 donors and 9 recipients, for which the same continuous intravenous administration was carried out with the use of the same fluids as for Group 1, except that the compound (I) was not added thereto. A University of Wisconsin (hereinafter referred to as "UW") fluid prepared in a simplified manner was used for the perfusion and preservation of the transplant livers. The fluid was one obtained by omitting hydroxyethylstarch from the composition of the UW fluid customarily employed in the preservation of livers.
For each of the donors, premedication with ketamine (10 mg/kg) was conducted, and the auricular vein was cannulated to initiate the administration of physiological saline. Ketamine (5 mg/kg, i.v.) and pancronium (0.2 mg/kg, i.v.) were administered, and thereafter the airway was secured. The donor under surgical operation was kept anesthetized by inhalation of 3 ℓ of oxygen, 4 ℓ of laughing gas and 1.5% ethrane.
Heparin (10,000 IU) was intravenously injected, and thereafter the subrenal ventral aorta was cannulated. […] The gallbladder was dissected, and washed with physiological saline. The resultant liver was taken out, and immersed in a UW fluid bath. […] The transplant liver was preserved at 4°C for 8 hr.
Each of the recipient swine was also anesthetized in the same manner as described above with respect to the surgical operation of the donors. The right carotid artery and the right subclavian vein were cannulated for blood pressure monitoring and blood sampling and for intravenous injection, respectively. The abdomen was cut open, and the liver was detached and removed. During the ahepatic period, the blood from the portal vein was passively bypassed through a shunt tube inserted into the portal vein and the right external jugular vein. […] After the completion of the anastomosis with the portal vein, the transplant liver was reperfused with the blood from the portal vein.
The bile duct was drained outside the body through a biliary external fistula tube.
Just before the anastomosis with the portal vein, the transplant liver was perfused with lactated Ringer's solution (500 ml) containing dextrose (5 wt.%), mannitol (1.25 wt.%) and sodium bicarbonate (0.21 wt.%) to thereby remove the preservation fluid. The washing fluid was held at 30 to 37°C. Within 3 min of the hot washing, the transplant liver was reperfused.
During the ahepatic period starting with the initiation of the surgical operation, physiological saline (500 ml) containing dextrose (2.5 wt.%) was administered through the auricular vein. For the Group 1, the compound (I) (0.3 mg/kg) was mixed in the saline solution. During the ahepatic period, 500 to 750 ml of physiological saline containing sodium bicarbonate (0.21 wt.%) was rapidly injected in order to prevent blood pressure lowering. Sodium bicarbonate (1.05 g) and calcium gluconate (0.1 g) were intravenously administered prior to the reperfusion of the transplant liver. During the surgical operation, no transfusion was conducted, and a total of 1.5 to 2.0 ℓ of infusion solution was administered. […]

The subject of a further data set is Large-White pigs. In words: Orthotopic liver transplantation following 8 hour cold preservation in pigs (second description). Format: in vivo. The procedure:
Orthotopic liver transplantations following 8 hour cold preservation were performed. Large-White pigs weighing 35-40 Kg were used after 24 hours starvation. Pigs were randomly divided into 2 groups. In Group 1, the PAF antagonist treatment group, consisting of 9 donors and 9 recipients, the PAF antagonist the compound (I) was given in the solutions (1mg/L) for flush-out and preservation at donor operation. It was also administered into recipients (0.3mg/Kg body weight) as an infusion and given in the solution (1mg/L) for rinsing before reperfusion of the graft (RPF) at recipient operation. Group 2, the untreated control group, consisted of 9 donors and 9 recipients that received the same solutions or intravenous infusion only without the compound (I). The solutions for flush-out and preservation of the graft liver were simplified UW solution in which hydroxyethyl starch was omitted from the original formulation of UW solution described for liver preservation, according to the reports showing that hydroxyethyl starch is not an essential component in UW solution.
Following premedication with ketamine (10mg/Kg i.m.), the ear vein was cannulated and saline perfusion was started. After injection of ketamine (5mg/Kg i.v.) and pancuronium (0.2mg/Kg i.v.), the animals were […]. Anesthesia was maintained by inhalation with 3L oxygen, 4L nitrous oxide and 1.5% ethranne. […] Following intravenous injection of heparine (10,000IU), the subrenal abdominal aorta was cannulated. […] The gallbladder was incised and washed with saline. The liver was harvested and dipped in 4üÄ UW solution bath.
The recipient pigs were anesthesized as described in donor operation. The right carotid artery and the right subclavian vein were then cannulated for blood pressure monitoring and blood sampling and for intravenous fluid infusion, respectively. After laparotomy, the liver was dissected free and removed. During anhepatic period, the portal blood was passively shunted by a tube between the portal vein and the right external jugular vein. […] The graft liver was reperfused with the portal blood after completion of the portal vein anastomosis. The bile duct was drained by external tube fistula. Immediately before the anastomosis of the portal vein, to remove the preservation solution, the graft liver was flushed with 500ml of Ringers lactate containig dextrase (5g%), mannitol (1.25g%) and sodium bicarbonate (0.21g%) as previously described. […] In our operations, the duration between the warm rinsing and RPF was less than 3 miniutes by using the cuff technique in portal vein anastomosis.
Intraoperative fluid infusion was as follows; 500ml of saline containing dextrose (2.5g%) was infused through the ear vein between the begining of the operation and the anhepatic period. In Group 1, The compound (I) (0.3mg/Kg) was mixed in this solution. During the anhepatic period, 500-750ml of saline containing sodium bicarbonate (0.21g%) was rapidly infused to prevent hypotension. Prior to RPF, sodiumu bicarbonate (1.05g) and calcium gluconate (0.1g) were injected intravenously. As a total, 1.5-2L of the fluid was infused during operation without any blood transfusion. Postoperatively, 0.5-1.0L of 5% dextrose solution was infused for the first 12 hours. Sodium bicarbonate was given to correct metabolic acidosis when necessary. No immunosuppressant was administered.
(§2) (1-Ethyl-2-[N-(2-methoxy)benzoyl-N-[(2R)-2-methoxy-3-( 4-octadecylcarbamoyloxy)piperidinocarbonyloxypopoxy]carbonyl]aminomethylpyridinium chloride, molecular weight 860.5) was supplied in powder form by Eisai Co.,Ltd. (Japan). It is soluble in water and saline, and a 1.5 mg/ml solution was prepared with saline immediately before use.
AKBR was measured at the time of cannulation in the right carotid artery (before), and at 1, 2, 4 and 12 hours after RPF. […]

Data set [2] in a line: Solubility in water and physiological saline. Type of data set: physicochemical. Here is the method:
The compound (I) soluble in both water and physiological saline was dissolved in physiological saline to prepare a solution of the compound (I) (1.5 mg/ml) prior to use.
as §2

The subject of another data set is human platelets. The settings on record: reported value; read-out: IC50 value, inhibition of aggregation of human platelets induced by PAF; cited from earlier work.
For data set [3], the system named is rat liver transplantation. The settings on record: livers ischemic for 60 min, untreated group 0%, cited from earlier work.
[4] abbreviates: Group 1, 4 hr after the reperfusion (p<0.05).

Structures are written as SMILES. “And” between values parts separate entries of the source, which are not always exact repeats. Equal entries are not always repeated. Where two headings read alike, the source gives them in different places.

Consider `CCCCCCCCCCCCCCCCCCNC(=O)OC1CCN(C(=O)OCC(COC(=O)N(Cc2cccc[n+]2CC)C(=O)c2ccccc2OC)OC)CC1.[Cl-]` (stereo not drawn) [compound (I), 1-ethyl-2-[N-(2-methoxy)benzoyl-N-{2-methoxy-3-(4-octadecylcarbamoyloxy)piperidinocarbonyloxypropoxy}carbonyl]aminomethylpyridinium chloride], for which the “Acute toxicity (LD₅₀)” value was 50.0 mg/kg in the data set with Slc:ICR mice (Female), 46.8 mg/kg with Slc:ICR mice (Male), 22.8 mg/kg with Slc:SD rats (Female) and 18.2 mg/kg with Slc:SD rats (Male). Further, the “LD₅₀ values relative to the clinical dose in intravenous injection” value in the data set with Slc:ICR mice (mouse LD₅₀ values of Table 1) and in the data set on Slc:SD rats (rat LD₅₀ values of Table 1) was at least 50 times each time. Besides, the hematocrit values result was “rapidly increased 2 hr after the reperfusion, and gradually decreased thereafter” in data set [1] (Group 1 (both groups alike), course after the reperfusion); “increased markedly at 2 hours after RPF, and then gradually decreased” with Large-White pigs (Group 1 (both groups alike), course after RPF). Besides, the “survival of all of the 9 swine” value in data set [1] (Group 1 (treated group)) is given as “at least 4 days”. For the same compound, the “12-hr or longer survinal rate” value in data set [1] (Group 1, 9/9, Group 2 (untreated) 56% (5/9)) is on record as 100%. Further, the “lactate level of arterial blood” value in data set [1] (Group 1, 2 hr after the reperfusion) is 9.9 ± 1.0 mmol/L; in data set [1] (setting [4]), 6.2 ± 1.1 mmol/L; in data set [1] (Group 1, 12 hr after the reperfusion), “recovered to the initial level”. The platelet count is listed as 309.8 ± 21.6 ×10³/µℓ in data set [1] (Group 1, 2 hr later); 227.8 ± 13.4 ×10³/µℓ in data set [1] (Group 1, 12 hr later); 294.4 ± 19.8 ×10³/µℓ in data set [1] (Group 1, prior value); “slightly increased at 2 hours” with Large-White pigs (Group 1, at 2 hours after RPF). Also, the leukocyte count was found to be 14.3 ± 1.8 ×10³/µℓ in data set [1] (Group 1, 2 hr later (p<0.01 vs Group 2)) and 11.5 ± 1.1 ×10³/µℓ in data set [1] (Group 1, prior value). In data set [1] (setting [4]), this compound yielded a GOT level of 712 ± 97 U/ℓ. Besides, the GPT level in data set [1] (setting [4]) is listed as 65 ± 4 U/ℓ. The AKBR entry is recorded as “recovered to the normal condition level” in data set [1] (Group 1, 12 hr after the reperfusion, significantly higher than Group 2 (p<0.05)); “only slightly higher than that of the Group 2” in data set [1] (Group 1, during 4 hr after the reperfusion, compared with Group 2); “tendency to be higher in Group 1 than in Group 2, though not significant” in the data set with Large-White pigs (Group 1 versus Group 2, at 4 hours after RPF). The “Histologic study (optical microscope): hepatocyte necroses, stagnation of hepatosinusoidal inflammatory cells, vacuolar degeneration” value in data set [1] (Group 1, reperfused liver 1 hr after the reperfusion) is “little observed”. In data set [1] (Group 1 versus Group 2, 1 hr after the reperfusion), the “glycogen content of the hepatocytes (staining)” value was “the glycogen content of the hepatocytes in the Group 2 was smaller than that in the Group 1”. In data set [1] (individual recipient swine of Group 1 (treated): 1 mg/ℓ in perfusate, preservation fluid and washing fluid, 0.3 mg/kg i.v. to recipients, 0.3 mg/kg), the “Period of Survival” value was 7 days or more (4×) and 4 days and 5 days and 6 days (2×) and 7 days. Also, the “survival of all the 9 pigs” value with Large-White pigs (Group 1 (treated)) was “more than 4 days”. Also, the “lactate level in arterial blood” value in the data set on Large-White pigs (Group 1, at 12 hours after RPF) is “restored to the primary levels”. Besides, the “Histological examination by light microscopy (HE stain): necrosis of hepatocytes, exudate of inflammatory cells, microvesicular changes” value with Large-White pigs (Group 1, reperfused liver at 1 hour after RPF) was “rarely seen”. For the same compound, in the data set with Large-White pigs (Group 1 versus Group 2, at 1 hour after RPF), the “content of glycogen in hepatocytes (PAS staining)” value is reported as “lesser content of glycogen in hepatocytes in Group 2 than in Group 1”. Further, the Survival in the data set with Large-White pigs (individual pigs of Group 1 (n=9) (treated): 1mg/L in flush-out, preservation and rinsing solutions, 0.3mg/Kg infusion to recipients, 0.3 mg/kg) is >7 POD (4×) and 4 POD and 5 POD and 6 POD (2×) and 7 POD. The solubility entry in data set [2] is “soluble”. For the same compound, the IC50 in the data set on human platelets was 0.66 nM.

As to `COC1=C(OC)C(=O)C(C/C=C(\C)CC/C=C(\C)CC/C=C(\C)CC/C=C(\C)CC/C=C(\C)CC/C=C(\C)CC/C=C(\C)CC/C=C(\C)CC/C=C(\C)CCC=C(C)C)=C(C)C1=O` [coenzyme Q₁₀], the one-week survival rate result in data set [3] (10 mg/kg intravenously to the donor rats prior to the operation) and in data set [3] (10 mg/kg intravenously to the recipient rats prior to the operation) was “about 50%” each time.

A word on the IC50: it is the concentration at which inhibition is half-maximal.

The values above are taken from patent publication EP0672415A1, “Organopathy preventing, curing or ameliorating agent” (priority 1994, dated 1995).
